Reference: publication PMC4215169 (Nature communications, 2014)

What was measured:
HCV protease = details: cited from earlier work
HCV protease D168Y = HCV protease D168Y (Hepatitis C virus genotype 1a, UniProt P27958, D1194Y); test: biochemical
HCV protease D168E = HCV protease D168E (Hepatitis C virus genotype 1a, UniProt P27958, D1194E); test: biochemical
wild-type HCV protease = wild-type HCV protease (Hepatitis C virus genotype 1a, UniProt P27958); type: biochemical

## C=C[C@@H]1C[C@]1(NC(=O)[C@@H]1C[C@@H](Oc2ncc(OC)c3ccc(Cl)cc23)CN1C(=O)[C@@H](NC(=O)OC(C)(C)C)C(C)(C)C)C(=O)NS(=O)(=O)C1CC1 [asunaprevir]
HCV protease
  IC50: ~1 nM

## CC(C)(C)OC(=O)N[C@H]1CCCCC/C=C\[C@@H]2C[C@@]2(C(=O)NS(=O)(=O)C2CC2)NC(=O)[C@@H]2C[C@@H](OC(=O)N3Cc4cccc(F)c4C3)CN2C1=O [danoprevir]
HCV protease D168Y
  IC50: 34.4 ± 2.8 nM
HCV protease
  IC50: ~0.3 nM
HCV protease D168E
  IC50: 38.9 ± 2.4 nM
wild-type HCV protease
  IC50: 1.3 ± 0.1 nM
